Test results as given in patent US20230100844A1, “IBOGAINE COMBINATION TREATMENT” (ATAI Life Sciences AG, priority 2021, published 2023).
Read-outs that look alike come from different tables or passages of the source.

Experiments:
CYP2D6 = target: T1, CYP2D6 (Homo sapiens, UniProt P10635); conditions: humans; cited from earlier work
T1 construct: host or cells: human subjects (endogenous enzyme of gut wall and liver)

[1] = cited from earlier work
[2] = in vivo; cited from earlier work
[3] = Nonclinical proof-of-concept PD study: drug self-administration after CYP2D6 inhibitor plus ibogaine; format: in vivo, rats and/or nonhuman primates; conditions: single dose CYP2D6 inhibitor followed by single dose ibogaine
Protocol: Nonclinical proof-of-concept PD studies (rats and/or nonhuman primates):
Dose(s) of CYP2D6 inhibitor based on prior PK studies in the same species are tested. Intravenous drug self-administration studies involve training the animal to emit a response (e.g., lever press) for a non-drug reinforcer (e.g., food) under specific stimulus conditions in the test chamber. Then, the animal undergoes aseptic surgery to place a chronically indwelling intravenous cannula that is connected to a drug infusion system within the test chamber. After surgical recovery, the stimulus conditions in the test chamber now signal the availability of a drug reinforcer (e.g., morphine or cocaine), and lever pressing results in an intravenous infusion of the available drug during daily session. For studies of oral self-administration (e.g., ethanol), animals are trained to self-administer the drug using a lever paradigm (e.g., in which pressing of the lever results in delivery of the drug solution into a drinking cup) or a two-bottle choice […] paradigm (e.g., in which animals are allowed to drink for 24 hours from one bottle containing a drug solution or another bottle containing water). During a test session, vehicle or a dose of CYP2D6 inhibitor is administered prior to a dose of ibogaine and then, responses on the drug-associated lever or the volume of drug solution consumed are measured.

[4] = single oral administration, humans; cited from earlier work
[5] = single oral 8-12 mg/kg HCl; cited from earlier work
[6] = single oral 10 mg/kg ibogaine, cited from earlier work
[7] = animals, meta-analysis; cited from earlier work
[8] = cited from earlier work; for plasma exposures with chronic paroxetine: CYP2D6 extensive metabolizers, paroxetine 10-20 mg, single ibogaine 20 mg (about 0.3 mg/kg); for time out to which ibogaine plasma exposures are detectable: single ibogaine 20 mg
[9] = in vivo; cited from earlier work; remark: listed apart in the source
[10] = oral administration; cited from earlier work

T1 sequence (P10635 whole entry): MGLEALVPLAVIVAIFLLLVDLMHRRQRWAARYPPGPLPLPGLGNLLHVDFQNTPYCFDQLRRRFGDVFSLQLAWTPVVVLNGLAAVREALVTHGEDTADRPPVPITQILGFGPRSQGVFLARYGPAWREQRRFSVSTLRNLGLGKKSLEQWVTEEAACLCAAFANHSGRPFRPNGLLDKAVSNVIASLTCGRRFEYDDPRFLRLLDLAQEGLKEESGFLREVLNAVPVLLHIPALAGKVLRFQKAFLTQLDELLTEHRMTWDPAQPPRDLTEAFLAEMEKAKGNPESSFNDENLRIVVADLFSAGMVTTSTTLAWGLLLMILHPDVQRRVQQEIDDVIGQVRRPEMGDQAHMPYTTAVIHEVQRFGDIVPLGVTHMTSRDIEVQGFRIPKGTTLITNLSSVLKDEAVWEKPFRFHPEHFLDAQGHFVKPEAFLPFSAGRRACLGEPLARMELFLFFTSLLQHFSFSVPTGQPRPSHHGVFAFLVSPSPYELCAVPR

C=C[C@H]1C[N@@]2CC[C@H]1C[C@@H]2[C@@H](O)c1ccnc2ccc(OC)cc12 [Quinidine, quinidine]
in vivo CYP2D6 inhibition (CYP2D6): can inhibit the metabolism of the CYP2D6 substrate debrisoquine in vivo

C[C@H]1NC(C)(C)CO[C@]1(O)c1cccc(Cl)c1 [hydroxybupropion]
half-life of metabolite ([1]; bupropion metabolites that also inhibit CYP2D6): 22 to 25 h

CNCCC(Oc1ccc(C(F)(F)F)cc1)c1ccccc1 (stereo not shown) [Fluoxetine, fluoxetine]
half-life [2]: long half-life (days)

CCC1CC2CC3c4[nH]c5ccc(OC)cc5c4CCN(C2)C13 (stereo not shown) [ibogaine, Ibogaine]
therapeutic-like effects (reduction of drug self-administration) with CYP2D6 inhibitor pretreatment [3]: increases ibogaine's therapeutic-like effects | time blood concentrations were detectable [4]: about 24 h | time to peak blood concentration [4]: peaked within a couple of hours | opioid withdrawal signs, craving and mood [5]: reduced opioid withdrawal signs and craving and increased mood | absorbed ibogaine eliminated by 24 hours post dose ([6]; CYP2D6 extensive metabolizers): > 90% | exposure in CYP2D6 poor metabolizers compared to extensive metabolizers [6]: modestly increased | self-administration of drugs (opiates, cocaine, ethanol) [7]: reduced self-administration of several drugs | plasma exposures with chronic paroxetine [8]: increased plasma exposures | time out to which ibogaine plasma exposures are detectable ([8]; chronic paroxetine 10-20 mg): 72 h | time out to which ibogaine plasma exposures are detectable ([8]; chronic placebo treatment): < 4 h | time within which visualizations and perceptual changes subside [9]: 6 to 8 h | cardiac QT interval [10]: associated with cardiac QT interval prolongation

CC(NC(C)(C)C)C(=O)c1cccc(Cl)c1 (stereo not shown) [bupropion]
single-dose half-life ([1]; single dose): 10 to 15 h

CC[C@H]1C[C@H]2C[C@H]3c4[nH]c5ccc(O)cc5c4CCN(C2)[C@@H]13 [noribogaine]
time blood concentrations were detectable [4]: detectable for a longer duration | time to peak blood concentration [4]: peaked later | Cmax in blood ([6]; CYP2D6 extensive metabolizers): in the same range as the parent drug | concentrations at 24 hours ([6]; CYP2D6 extensive metabolizers): remained elevated | exposure in CYP2D6 poor metabolizers compared to extensive metabolizers [6]: markedly decreased | plasma exposures with chronic paroxetine [8]: decreased plasma exposures
